Data on 36 compounds can be found in patent US12351570B2 (MERCK PATENT GMBH, priority 2018, dated 2025).

In this experiment the test system is MDA-MB-231 cells. In words: Extracellular lactate production inhibition after 4 h, MDA-MB-231. The following applies: Homo sapiens, MDA-MB-231.
For orientation: IC50 means the concentration that gives 50% inhibition. High values mean weaker potency in that assay, low ones greater potency in that assay. Compound `Cc1ccc(S(=O)(=O)Nc2ccccc2C#Cc2ccc(C(=O)O)cc2)c2ccccc12` [Compound 75, 4-{2-[2-(4-methylnaphthalene-1-sulfonamido)phenyl]ethynyl}benzoic acid] gave an IC50 of 100 to 1000 nM.

For `COc1ccc(S(=O)(=O)Nc2ccc(C)cc2C#Cc2ccc(C(=O)O)nc2)c(C)c1C` [Compound 413, 5-{2-[2-(4-methoxy-2,3-dimethylbenzenesulfonamido)-5-methylphenyl]ethynyl}pyridine-2-carboxylic acid], the IC50 lay within 10 to 100 nM.

`COc1cc(C(=O)OCC(O)CO)ncc1C#Cc1ccccc1NS(=O)(=O)c1c(C)ccc2cccnc12` (stereo not drawn) [Compound 408, 2,3-dihydroxypropyl 4-methoxy-5-{2-[2-(7-methylquinoline-8-sulfonamido)phenyl]ethynyl}pyridine-2-carboxylate] displayed an IC50 of 10 to 100 nM.

On to `O=C(O)c1ccc(C#Cc2ccccc2NS(=O)(=O)N2CCCC3CCCCC32)cn1` (stereo not drawn) [Compound 144, 5-(2-{2-[(decahydroquinoline-1-sulfonyl)amino]phenyl}ethynyl)pyridine-2-carboxylic acid], for which the IC50 lay within 10 to 100 nM.

`CNc1ccnc2c(S(=O)(=O)Nc3ccccc3C#Cc3cnc(C(=O)O)cc3C)cccc12` [Compound 425, 4-Methyl-5-[2-(4-methylamino-quinoline-8-sulfonylamino)-phenylethynyl]-pyridine-2-carboxylic acid]: the IC50 lay within 1000 to 100000 nM.

For `Cc1ccccc1S(C)(=O)=Nc1ccccc1C#Cc1ccc(C(=O)O)nc1` (stereo not drawn) [Compound 438, 5-[2-(2-{[methyl(2-methylphenyl)oxo-λ6-sulfanylidene]amino}phenyl)ethynyl] pyridine-2-carboxylic acid], the IC50 lay within 1000 to 100000 nM.

As to `CS(=O)(=Nc1ccccc1C#Cc1ccc(C(=O)O)nc1)c1cccc2cccnc12` (stereo not drawn) [Compound 429, 5-[2-(2-{[methyl(oxo)(quinolin-8-yl)-λ6-sulfanylidene]amino}phenyl)ethynyl] pyridine-2-carboxylic acid], the IC50 was in the range of 1000 to 100000 nM.

In turn, `COc1ccc(S(C)(=O)=Nc2ccccc2C#Cc2ccc(C(=O)O)nc2)cc1` (stereo not drawn) [Compound 428, 5-[2-(2-{[(4-methoxyphenyl)(methyl)oxo-λ6-sulfanylidene]amino}phenyl)ethynyl] pyridine-2-carboxylic acid] displayed an IC50 of 1000 to 100000 nM.

As to `Cc1cc(S(=O)(=O)Nc2ccccc2C#Cc2cnc(C(=O)O)c(Cl)c2)c2ncccc2c1` [Compound 335, 3-chloro-5-{2-[2-(6-methylquinoline-8-sulfonamido)phenyl]ethynyl}pyridine-2-carboxylic acid], the IC50 was in the range of 1000 to 100000 nM.

`CCOc1ccc(NS(=O)(=O)c2cccc3cccnc23)c(C#Cc2ccc(C(=O)O)nc2)c1` [Compound 329, 5-[5-Ethoxy-2-(quinoline-8-sulfonylamino)-phenylethynyl]-pyridine-2-carboxylic acid] registered an IC50 of 100 to 1000 nM.

Consider `Cc1ccc2cccnc2c1S(=O)(=O)Nc1ccccc1C#Cc1ccc(C(=O)O)nc1C` [Compound 100, 6-methyl-5-{2-[2-(7-methylquinoline-8-sulfonamido)phenyl]ethynyl}pyridine-2-carboxylic acid], for which the IC50 lay in the range of 1000 to 100000 nM.

As to `O=C(O)c1ccc(C#Cc2ccccc2CS(=O)(=O)c2ccc3ccccc3c2)cc1` [Compound 6, 4-(2-{2-[(naphthalene-2-sulfonyl)methyl]phenyl}ethynyl)benzoic acid], the IC50 lay in the range of 100 to 1000 nM.

The compound `CC(C)Oc1ccc(S(=O)(=O)Nc2ccccc2C#Cc2cnc(C(=O)O)c3ccccc23)c2ncccc12` [Compound 447, 4-(2-{2-[5-(propan-2-yloxy)quinoline-8-sulfonamido]phenyl}ethynyl)iso-quinoline-1-carboxylic acid] came in with an IC50 of 100 to 1000 nM.

`N#Cc1cc(C#Cc2ccccc2NS(=O)(=O)c2ccc3ccccc3c2)ccc1C(=O)O` [Compound 24, 2-cyano-4-{2-[2-(naphthalene-2-sulfonamido)phenyl]ethynyl}benzoic acid]: the IC50 was 1000 to 100000 nM.

Turning to `O=C(O)c1ccc(C#Cc2ccccc2NS(=O)(=O)c2ccc(C3=CCCCC3)cc2)cn1` [Compound 177, 5-(2-{2-[4-(cyclohex-1-en-1-yl)benzenesulfonamido]phenyl}-ethynyl)pyridine-2-carboxylic acid], the IC50 lay in the range of 100 to 1000 nM.

Turning to `Cc1ccc2c(C)ccnc2c1S(=O)(=O)Nc1ccccc1C#Cc1ccc(C(=O)O)nc1` [Compound 310, 5-{2-[2-(4,7-dimethylquinoline-8-sulfonamido)phenyl]ethynyl}pyridine-2-carboxylic acid], the IC50 is 10 to 100 nM.

In turn, `COc1ccc(S(=O)(=O)Nc2cc(Cl)c(Cl)cc2C#Cc2ccc(C(=O)O)nc2)c2ncccc12` [Compound 190, 5-{2-[4,5-dichloro-2-(5-methoxyquinoline-8-sulfonamido)phenyl]ethynyl}pyridine-2-carboxylic acid] registered an IC50 of 10 to 100 nM.

With `CCc1cc(C#Cc2ccccc2NS(=O)(=O)c2ccc(OC)c3cccnc23)cnc1C(=O)O` [Compound 451, 3-Ethyl-5-[2-(5-methoxy-quinoline-8-sulfonylamino)-phenylethynyl]-pyridine-2-carboxylic acid], the IC50 lay within 10 to 100 nM.

Take `O=C(O)c1ccc(C#Cc2ccccc2C[S+]([O-])c2ccc3ccccc3c2)cc1` (stereo not drawn) [Compound 20, 4-(2-{2-[(naphthalene-2-sulfinyl)methyl]phenyl}ethynyl)benzoic acid]: the concentration for half-maximal inhibition (IC50) is 1000 to 100000 nM.

Compound `CNc1ccnc2c(S(=O)(=O)Nc3ccccc3C#Cc3cnc(C(=O)O)cc3OC)cccc12` [Compound 419, 4-Methoxy-5-[2-(4-methylamino-quinoline-8-sulfonylamino)-phenylethynyl]-pyridine-2-carboxylic acid] returned an IC50 of 1000 to 100000 nM.

On to `CCN(c1ccccc1C#Cc1ccc(C(=O)O)cc1)S(=O)(=O)c1ccc2ccccc2c1` [Compound 36, 4-{2-[2-(N-ethylnaphthalene-2-sulfonamido)phenyl]ethynyl}benzoic acid], for which the IC50 was in the range of 1000 to 100000 nM.

Compound `O=C(O)c1c(F)cc(C#Cc2ccccc2NS(=O)(=O)c2ccc3ccccc3c2)cc1F` [Compound 29, 2,6-difluoro-4-{2-[2-(naphthalene-2-sulfonamido)phenyl]ethynyl}benzoic acid] displayed an IC50 of 1000 to 100000 nM.

The compound `CCOc1cc(C#Cc2ccccc2NS(=O)(=O)c2ccc(OC)c3ccccc23)ccc1C(=O)O` [Compound 58, 2-ethoxy-4-{2-[2-(4-methoxynaphthalene-1-sulfonamido)phenyl]ethynyl}benzoic acid] registered an IC50 of 100 to 1000 nM.

`Cc1ccc2cccnc2c1S(=O)(=O)Nc1ccccc1C#Cc1ccc(C(=O)OCCCCN(C)C)nc1` [Compound 407, 4-(dimethylamino)butyl 5-{2-[2-(7-methylquinoline-8-sulfonamido)phenyl]ethyny}pyridine-2-carboxylate] returned an IC50 of 1000 to 100000 nM.

Take `COc1ccc(C#Cc2ccc(C(=O)O)nc2)c(NS(=O)(=O)c2ccc(OC)c3cccnc23)c1` [Compound 197, 5-{2-[4-methoxy-2-(5-methoxyquinoline-8-sulfonamido)phenyl]ethynyl}pyridine-2-carboxylic acid]: the IC50 was in the range of 100 to 1000 nM.

`COc1cc(C(=O)O)ncc1C#Cc1cc(Br)ccc1NS(=O)(=O)c1c(C)ccc2cccnc12` [Compound 352, 5-{2-[5-bromo-2-(7-methylquinoline-8-sulfonamido)phenyl]ethynyl}-4-methoxypyridine-2-carboxylic acid] yielded an IC50 of 1 to 10 nM.

`CN(C)c1ccnc2c(S(=O)(=O)Nc3ccccc3C#Cc3ccc(C(=O)O)nc3)cccc12` [Compound 420, 5-[2-(4-Dimethylamino-quinoline-8-sulfonylamino)-phenylethynyl]-pyridine-2-carboxylic acid] displayed an IC50 of 1000 to 100000 nM.

Compound `O=C(O)c1ccc(C#Cc2ccccc2NS(=O)(=O)c2ccc3c(c2)OCCO3)cc1` [Compound 250, 4-[2-(2,3-Dihydro-benzo[1,4]dioxine-6-sulfonylamino)-phenylethynyl]-benzoic acid] registered an IC50 of 1000 to 100000 nM.

Turning to `CCOc1ccc2cccnc2c1S(=O)(=O)Nc1ccccc1C#Cc1ccc(C(=O)O)nc1` [Compound 210, 5-{2-[2-(7-ethoxyquinoline-8-sulfonamido)phenyl]ethynyl}pyridine-2-carboxylic acid], the IC50 was in the range of 10 to 100 nM.

In turn, `O=CN(Cc1cccc2cccnc12)c1ccccc1C#Cc1ccc(C(=O)O)nc1` [Compound 178, 5-[2-(2-{N-[(quinolin-8-yl)methyl]formamido}phenyl)ethynyl] pyridine-2-carboxylic acid] came in with an IC50 of 100 to 1000 nM.

In turn, `COc1cc(C(=O)O)ncc1C#Cc1ccccc1NS(=O)(=O)N1CCC[C@@H]2CCCC[C@H]21` [Compound 221, 5-[2-(2-{[(4a,8a-trans)-decahydro-quinoline-1-sulfonyl]amino}phenyl)-ethynyl]-4-methoxypyridine-2-carboxylic acid] displayed an IC50 of 1 to 10 nM.

`COc1ccc(S(=O)(=O)Nc2cc(Br)ccc2C#Cc2ccc(C(=O)O)nc2)c2ncccc12` [Compound 182, 5-{2-[4-bromo-2-(5-methoxyquinoline-8-sulfonamido)phenyl]ethynyl}pyridine-2-carboxylic acid] registered an IC50 of 100 to 1000 nM.

`Cc1cc(C#Cc2cc(F)ccc2NS(=O)(=O)c2ccc(-c3ccccc3)cc2)cnc1C(=O)O` [Compound 308, 5-[2-(2-{[1,1′-biphenyl]-4-sulfonamido}-5-fluorophenyl)ethynyl]-3-methylpyridine-2-carboxylic acid] showed an IC50 of 100 to 1000 nM.

`COCCOCCOc1ccnc2c(S(=O)(=O)Nc3ccccc3C#Cc3ccc(C(=O)O)nc3)cccc12` [Compound 330, 5-[2-(2-{4-[2-(2-methoxyethoxy)-ethoxy]quinoline-8-sulfonamido}-phenyl)ethynyl]pyridine-2-carboxylic acid] had a concentration for half-maximal inhibition (IC50) of 1000 to 100000 nM.

In the case of `Cc1ccc2cccnc2c1S(=O)(=O)Nc1ccc(Cl)cc1C#Cc1cnc(C(=O)O)c2ccccc12` [Compound 234, 4-{2-[5-chloro-2-(7-methylquinoline-8-sulfonamido)phenyl]ethynyl}isoquinoline-1-carboxylic acid], the half-inhibitory concentration (IC50) is 10 to 100 nM.

For the compound `COc1cc(C#Cc2ccccc2NS(=O)(=O)c2ccc(OC)c3cccnc23)c(C)cc1C(=O)O` [Compound 364, 2-methoxy-4-{2-[2-(5-methoxyquinoline-8-sulfonamido)phenyl]ethynyl}-5-methylbenzoic acid], the IC50 was 1000 to 100000 nM.
